Source: PMC6249549, “Bioactive metabolites from the leaves of Withania adpressa” (Pharmaceutical Biology, 2018)
“Also recorded” adds a separate entry of the source.

Experiments:
[1] = test system: MM-CSCs (multiple myeloma cancer stem cells); experiment: Antiproliferative activity, MTT assay; type: cell-based, Human; settings: 72 h; for IC50: Homo sapiens, mean ± SD of three measurements
Procedure: (§1) Human multiple myeloma cancer stem cells (MM-CSCs) derived from the bone marrow of a MM patient, were obtained from Celprogen (Torrance, CA). MM-CSCs were used between passages 4 and 12 for experiments. The tumour plasma cells RPMI 8226 were obtained from LGC standards (Middlesex, United Kingdom). RPMI 8226 cells were used between passages 10 and 25 for experiments. The two cell lines were cultured at 37 °C and 5% CO2 atmosphere in RPMI 1640 culture medium supplemented with 10% foetal bovine serum (Biowest), 100 IU/mL penicillin and 250 μg/mL streptomycin. MTT and XTT assays were used to evaluate the antiproliferative activity of the pure compounds in MM-CSCs and RPMI 8226 cells, respectively (Issa and Cuendet [2017]). MM-CSCs were seeded in 96 well plates at a density of 5,000 cells per well and allowed to adhere for 24 h, whereas RPMI 8226 cells were plated at a density of 15,000 cells per well and treated immediately. MM-CSCs and RPMI 8226 cells were treated with increasing concentrations (0–20 µM) of compounds for 72 h. Twenty microlitres of MTT solution (5 mg/mL) or 50 μL XTT solution (1 mg/mL) were added in each well and incubated for 2 h (MTT assay) or 4 h (XTT assay). The media and MTT solution were aspirated and the cells containing formazan were solubilized in 100 µL DMSO. Absorbance was measured at 590 nm (MTT assay) or 450 nm (XTT assay). The percentage of cell viability was calculated as the absorbance of each well was divided by that of the vehicle control wells (0.5% DMSO in culture medium) and multiplied by 100. IC50 values were calculated using GraphPad Prism. Each compound was tested in triplicate and three independent experiments were performed using bortezomib as positive control.

[2] = test system: RPMI 8226 cells; experiment: Antiproliferative activity, XTT assay; type: cell-based; settings: for IC50: Homo sapiens, RPMI-8226, 72 h, mean ± SD of three measurements; for Antiproliferative activity against RPMI 8226 (in words): 72 h
Procedure: as §1

[3] = test system: NF-κB; experiment: NF-κB inhibition assay, TNF-α stimulated HEK293/NF-κB-luc luciferase reporter cells; type: cell-based; settings: TNF-α (20 ng/mL) induced, mean ± SD of three independent measurements
Procedure: NF-κB inhibitory activity was assessed using a HEK293/NF-κB-luc cell line (Panomics, Fremont, CA) as previously described (Ndongo et al. [2017]). Briefly, cells were cultured at 37 °C and 5% CO2 atmosphere in high glucose Dulbecco's modified Eagle's medium (ThermoFisher Scientific) with 100 IU/mL penicillin, 100 μg/mL streptomycin, 100 μg/mL hygromycin B (ThermoFisher Scientific) and 10% foetal bovine serum (Biowest, Nuaillé, France). The day before the assay, cells were treated for 1 h with 2.5 μM of Cell Tracker Green CMFDA (ThermoFisher Scientific), a fluorescent dye used to quantify cell viability, in FBS-free medium. Then, 10^4 cells/well were seeded in 96-well plates and incubated overnight. After that, cells were treated with either the vehicle control (0.5% DMSO in culture medium) or the samples and stimulated for 5 h with 20 ng/mL of TNF-α (Sigma-Aldrich, Saint Louis, MO). Finally, cells were lysed with reporter lysis buffer (Promega, Madison, WI) and fluorescence signals were read on a Cytation 3 multimode plate reader (Biotek, Winooski, VT). Luciferase assay reagent (Promega) was then added to each well using the auto-injector and the luminescence signals were read. The fluorescence signal was used to normalize the luminescence signal for each well to limit the influence of cell toxicity in luminescence signal intensity. Relative NF-κB activity was quantified by comparing the normalized luminescence signal of vehicle treated nonstimulated cells with the one of vehicle treated stimulated cells. All pure compounds were first screened at 20 μM. Compounds able to inhibit more than 50% of TNF-α induced NF-κB activity at this concentration were considered as active and were selected for calculation of their IC50. Nonlinear regression (with sigmoidal dose response) was used to calculate the IC50 values using GraphPad Prism. Each compound was tested in duplicate and three independent experiments were performed using parthenolide as positive control.

[4] = DPPH radical scavenging assay; settings: pure compound
Procedure: The DPPH radical scavenging activity was carried out as described previously (Şahin et al. [2004]) with slight modifications. Samples (1–200 µg/mL) were added to a 60-μM methanol solution of DPPH. The absorbance of the solution was measured at 517 nm after a 30-min incubation period at room temperature in the dark.

[5] = NO radical scavenging assay; settings: pure compound

IC50 [4]	IC50 [5]	SMILES	IC50 [1]	IC50 [2]	IC50 ([3]; Homo sapiens, HEK293, 5 h)	Antiproliferative activity against MM-CSCs (in words) [1]	Antiproliferative activity against RPMI 8226 (in words) [2]	IC50 ([3]; 5 h)
		CC(C)C[C@H](NC(=O)[C@H](Cc1ccccc1)NC(=O)c1cnccn1)B(O)O [Bortezomib, bortezomib, reference compound]	9.1 ± 1.4 nM	3.3 ± 0.8 nM				
		CC1=C(C)C(=O)O[C@@H]([C@](C)(O)[C@]2(O)CC[C@@]3(O)[C@@H]4CC=C5CC=CC(=O)[C@]5(C)[C@H]4CC[C@]23C)C1 [Compound 1, withanolide F]	5300 ± 900 nM	100 ± 10 nM	1200 ± 200 nM	low µM antiproliferative activity; also recorded: showed activity	low µM antiproliferative activity; also recorded: showed activity	
		CC1=C(CO)C(=O)O[C@@H]([C@@H](C)[C@H]2CC[C@H]3[C@@H]4C[C@H]5O[C@]56[C@@H](O)C=CC(=O)[C@]6(C)[C@H]4CC[C@]23C)C1 [Compound 2, withaferin A]	330 ± 20 nM	170 ± 30 nM	47 nM	low µM antiproliferative activity	low µM antiproliferative activity	50 ± 10 nM
		CC1=C(C)C(=O)OC(C(C)(O)C2(O)CCC3(O)C4CC=C5CC(OC6OC(CO)C(O)C(O)C6O)CC(=O)C5(C)C4CCC32C)C1 (stereo not shown) [Compound 3, coagulin L]	> 20000 nM	3600 ± 600 nM	> 20000 nM			
35300 nM	41300 nM	C[C@@H]1O[C@@H](OC[C@H]2O[C@@H](Oc3c(-c4ccc(O)cc4)oc4cc(O)cc(O)c4c3=O)[C@H](O)[C@@H](O)[C@@H]2O)[C@H](O)[C@H](O)[C@H]1O [Compound 4, nicotiflorin]	> 20000 nM	7100 ± 100 nM	> 20000 nM			
		CC1=C(C)C(=O)OC(C(C)(O)C2(O)CCC3(O)C4CC=C5CC(OC6OC(CO)C(OC7OC(C)C(O)C(O)C7O)C(O)C6O)CC(=O)C5(C)C4CCC32C)C1 [Compound 5, (14R,17S,20R,22R)-3β-O-(α-L-rhamnopyranosyl-(1→4)-β-D-glucopyranosyl)-14,17,20-trihydroxy-1-oxo-witha-5,24-dienolide]	> 20000 nM	3200 ± 400 nM	> 20000 nM			
		C=C1C(=O)O[C@H]2[C@H]1CC/C(C)=C/CC[C@@]1(C)O[C@@H]21 [Parthenolide, parthenolide, reference compound]			530 ± 10 nM			
